Here are results for two compounds from patent US7846960B2, “FXR agonists” (Eli Lilly and Company, priority 2006, dated 2010).

Molecules are shown by their SMILES. pEC50: −log10 of the molar value.

In one assay the test system is LDLR−/− mice. Kind of assay: LDLR−/− Serum Lipid Modulation. Type of assay: in vivo. The settings on record: male LDLR−/− mice on western diet, 10 mg/kg, once daily oral gavage for seven days. Here is the method: Acclimate animals for two weeks prior to study initiation. House mice individually in polycarbonate cages with filter tops, and maintain mice on a 12:12 hour light-dark cycle (lights on at 6:00 AM) at 21° C. Provide deionized water ad libitum and maintain for two weeks on ‘western diet’ TD 88137 Diet (42% fat, 0.15% cholesterol, Harlan Teklad) ad libitum. Optimize groups of five ten-week-old male LDLR−/− mice based on serum triglyceride and cholesterol levels. Dose groups once daily by oral gavage with various doses of the test compound dissolved in 5% EtOH/5% Solutol in NaCMC (1%), SLS (0.5%), antifoam (0.05%), Povidone (0.085%) for seven days. At the end of the seven-day dosing period, collect blood by cardiac puncture after asphyxiation in a CO2 chamber. […] Lipoproteins were separated by fast protein liquid chromatography, and cholesterol was quantitated with an in-line detection system. […] The colored product produced in the presence of cholesterol was monitored in the flow stream at 505 nm, and the analog voltage from the monitor was converted to a digital signal for collection and analysis. The change in voltage corresponding to change in cholesterol concentration was plotted vs. time, and the area under the curve corresponding to the elution of VLDL-C and HDL-C was calculated using Turbochrome (version 4.12F12) software from PerkinElmer (Norwalk, Conn.).

The target of another assay is T1, FXR (Homo sapiens, UniProt Q96RI1).
T1 construct: Plate human hepatocarcinoma Huh7 cells grown in DMEM:F12 with 10% fetal bovine serum; endogenous in cells; host or cells: Huh7 human hepatocarcinoma cells
T1 sequence (Q96RI1 1-486): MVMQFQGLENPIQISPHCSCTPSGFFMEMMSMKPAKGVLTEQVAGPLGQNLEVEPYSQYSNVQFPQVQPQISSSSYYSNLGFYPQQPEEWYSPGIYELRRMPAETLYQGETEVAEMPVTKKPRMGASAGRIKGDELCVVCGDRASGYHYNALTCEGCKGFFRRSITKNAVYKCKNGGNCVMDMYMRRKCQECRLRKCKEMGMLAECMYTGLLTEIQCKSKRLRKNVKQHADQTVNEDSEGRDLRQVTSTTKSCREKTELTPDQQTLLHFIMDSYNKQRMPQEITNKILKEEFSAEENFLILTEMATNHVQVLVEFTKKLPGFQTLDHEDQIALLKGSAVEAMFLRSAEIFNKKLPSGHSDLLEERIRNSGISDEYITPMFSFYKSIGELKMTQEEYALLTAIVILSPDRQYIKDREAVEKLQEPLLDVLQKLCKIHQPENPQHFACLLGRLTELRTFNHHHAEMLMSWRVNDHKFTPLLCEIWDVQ
The assay can be described thus: bDNA Assay for SHP mRNA. Format: cell-based. The following applies: human hepatocarcinoma Huh7 cells, 24 hours treatment, SHP mRNA by bDNA; read-out: SHP gene activation EC50. From the text: FXR is a key, direct transcriptional regulator of the Small Heterodimer Partner (SHP) gene, accession number NM_021969, an atypical member of the nuclear receptor family that lacks a DNA-binding domain. SHP interacts with several conventional and orphan members of the nuclear receptor superfamily, including retinoid receptors and thyroid hormone receptor. SHP inhibits transactivation potential of superfamily members with which it interacts. […] Since FXR directly transactivates transcription of the SHP gene, the SHP branched DNA method (bDNA) quantitates FXR activation by ligands. Thus, increased expression of SHP mRNA, as determined by increase bDNA signal, signifies engagement of FXR by an agonist.
Plate human hepatocarcinoma Huh7 cells grown in DMEM:F12 with 10% fetal bovine serum and in 96 well plate at the density of 1×10^5/well. After overnight incubation, treat the cells with test compounds at various concentrations for 24 hours. […]
Incubate the lysis buffer for 15-minute at 37° C., then transfer 100 μL of the lysate from each well to the corresponding wells of the capture plate. […] Label the mRNA to be measured by addition of 100 μL QuantiGene® label probe working buffer then incubate for 60 minutes at 46° C. […] Incubate the plates at 37° C. for up to 30 minutes and then read on a luminometer (Packard Fusion Alpha, 1 second detection) to detect the luminescent signal. […]

Consider `Cc1cc(CN(C)c2ccc(OCc3c(C(C)C)cnn3-c3c(Cl)cccc3Cl)cc2C)cc(C(=O)O)c1` [Example 199, 3-[({4-[2-(2,6-Dichloro-phenyl)-4-isopropyl-2H-pyrazol-3-ylmethoxy]-2-methyl-phenyl}-methyl-amino)-methyl]-5-methyl-benzoic acid], for which, in the assay on LDLR−/− mice, the “lowering of total cholesterol” value was 60% and the lowering of triglycerides is recorded as 63%.
As to `CCN(Cc1cccc(C(=O)O)c1)c1ccc(OCc2c(C(C)C)cnn2-c2c(Cl)cccc2Cl)cc1C` [Example 90, 3-[({4-[2-(2,6-Dichloro-phenyl)-4-isopropyl-2H-pyrazol-3-ylmethoxy]-2-methyl-phenyl}-ethyl-amino)-methyl]-benzoic acid], on FXR, the pEC50 was around 7.28.

The term pEC50 denotes the EC50 on a negative log10 scale, so that one unit is a factor of ten.
